# Tests used:
# southern crabgrass [1] = assay: Test Example 5: herbicidal effect by foliage application, plastic box (Table 20, symbol F); type: in vivo, southern crabgrass (Digitaria ciliaris); settings: foliage application, 270 g/ha, 3 weeks after application
# In short: (§1)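 Foliar spray test: emulsion formulation diluted in water to a set application rate, sprayed onto 14-day-old plants raised in diluvial soil at 25° C to 30° C under glass. Both herbicidal effect and crop effect rated visually three weeks later.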
# green foxtail [2] = assay: Test Example 5: herbicidal effect by foliage application, plastic box (Table 20, symbol G); type: in vivo, green foxtail (Setaria viridis); settings: foliage application, 270 g/ha, 3 weeks after application
# In short: as §1
# barnyard grass [3] = assay: Test Example 5: herbicidal effect by foliage application, plastic box (Table 20, symbol H); type: in vivo, barnyard grass (Echinochloa crus-galli); settings: foliage application, 270 g/ha, 3 weeks after application
# In short: as §1
# wild oat [4] = assay: Test Example 5: herbicidal effect by foliage application, plastic box (Table 20, symbol I); type: in vivo, wild oat (Avena fatua); settings: foliage application, 270 g/ha, 3 weeks after application
# In short: as §1
# blackgrass [5] = assay: Test Example 5: herbicidal effect by foliage application, plastic box (Table 20, symbol J); type: in vivo, blackgrass (Alopecurus myosuroides); settings: foliage application, 270 g/ha, 3 weeks after application
# In short: as §1
# Italian ryegrass [6] = assay: Test Example 5: herbicidal effect by foliage application, plastic box (Table 20, symbol K); type: in vivo, Italian ryegrass (Lolium multiflorum); settings: foliage application, 270 g/ha, 3 weeks after application
# In short: as §1
# windgrass [7] = assay: Test Example 5: herbicidal effect by foliage application, plastic box (Table 20, symbol L); type: in vivo, windgrass (Apera spica-venti); settings: foliage application, 270 g/ha, 3 weeks after application
# In short: as §1
# velvetleaf [8] = assay: Test Example 5: herbicidal effect by foliage application, plastic box (Table 20, symbol M); type: in vivo, velvetleaf (Abutilon theophrasti); settings: foliage application, 270 g/ha, 3 weeks after application
# In short: as §1
# lambsquarters [9] = assay: Test Example 5: herbicidal effect by foliage application, plastic box (Table 20, symbol O); type: in vivo, lambsquarters (Chenopodium album); settings: foliage application, 270 g/ha, 3 weeks after application
# In short: as §1
# false cleavers = assay: Test Example 5: herbicidal effect by foliage application, plastic box (Table 20, symbol Q); type: in vivo, false cleavers (Galium spurium); settings: foliage application, 270 g/ha, 3 weeks after application
# Description: [Test Example 5] Herbicidal Effect Test by Foliage Application
# Sterilized diluvial soil was placed in a plastic box having a length of 21 cm, a width of 13 cm, and a depth of 7 cm. The seeds of each of southern crabgrass, green foxtail, barnyard grass, wild oat, blackgrass, Italian ryegrass, windgrass, velvetleaf, redroot pigweed, lambsquarters, chickweed, false cleavers, persian speedwell, corn, soybean, rice, wheat, beet, and rapeseed were sowed in a spot-like manner and covered with the soil having a thickness of about 1.5 cm. Thereafter, the plants were grown in a greenhouse at 25° C. to 30° C. After 14-day growth of the plants, the emulsion agent of the compound of the present invention prepared according to Formulation Example 2 was diluted with water so as to achieve a predetermined herbicide amount, and the diluted emulsion agent was uniformly applied to a foliage part with a small-sized spray. Three weeks after the herbicide application, the effect of the herbicide on each plant was evaluated according to the criteria of Test Example 1.
# persian speedwell [10] = assay: Test Example 5: herbicidal effect by foliage application, plastic box (Table 20, symbol R); type: in vivo, Persian speedwell (Veronica persica); settings: foliage application, 270 g/ha, 3 weeks after application
# In short: as §1
# late watergrass [11] = assay: Test Example 1: herbicidal activity, application before weed generation under submerged conditions (Table 16, symbol A); type: in vivo, late watergrass (Echinochloa oryzicola); settings: 320 g/ha applied herbicide
# In short: (§2)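 Alluvial soil was flooded to 4 cm depth, weed seeds were sown mixed and 2.5-leaf rice seedlings were transplanted. On sowing day, the compound's emulsion, diluted in water to a set dose, was applied to the water surface. Plants grew at 25–30 °C and were scored 0–5 after three weeks.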
# Japanese bulrush [12] = assay: Test Example 1: herbicidal activity, application before weed generation under submerged conditions (Table 16, symbol B); type: in vivo, Japanese bulrush (Schoenoplectus juncoides); settings: 320 g/ha applied herbicide
# In short: as §2
# oval-leafed pondweed [13] = assay: Test Example 1: herbicidal activity, application before weed generation under submerged conditions (Table 16, symbol C); type: in vivo, oval-leafed pondweed (Monochoria vaginalis); settings: 320 g/ha applied herbicide
# In short: as §2
# late watergrass [14] = assay: Test Example 2: herbicidal activity, application during weed generation under submerged conditions (Table 17, symbol A); type: in vivo, late watergrass (Echinochloa oryzicola); settings: AAH 320 g/ha; application during weed generation, submerged conditions
# In short: (§3)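 Effect on each weed is rated three weeks post-treatment, using the same scoring criteria as the preceding test. Plants grow from mixed-sown seed in flooded alluvial soil (4 cm water) at 25° C. to 30° C., and are treated at one to two leaves with diluted emulsion dropped onto the water.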
# Japanese bulrush [15] = assay: Test Example 2: herbicidal activity, application during weed generation under submerged conditions (Table 17, symbol B); type: in vivo, Japanese bulrush (Schoenoplectus juncoides); settings: AAH 320 g/ha; application during weed generation, submerged conditions
# In short: as §3
# oval-leafed pondweed [16] = assay: Test Example 2: herbicidal activity, application during weed generation under submerged conditions (Table 17, symbol C); type: in vivo, oval-leafed pondweed (Monochoria vaginalis); settings: AAH 320 g/ha; application during weed generation, submerged conditions
# In short: as §3
# barnyard grass [17] = assay: Test Example 3: herbicidal effect by foliage application, Wagner pot (Table 18, symbol H); type: in vivo, barnyard grass (Echinochloa crus-galli); settings: amount of applied herbicide 320 g/ha
# In short: (§4)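 Plants were sown in alluvial soil held under 0.1–0.5 cm standing water and grown 14 days in a greenhouse at 25–30 °C. An emulsifiable formulation, water-diluted to the set dose, was then sprayed onto the foliage, and effects were scored three weeks later using previously defined criteria.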
# Chinese sprangletop = assay: Test Example 3: herbicidal effect by foliage application, Wagner pot (Table 18, symbol D); type: in vivo, chinese sprangletop (Leptochloa chinensis); settings: amount of applied herbicide 320 g/ha
# In short: as §4
# rice flat sedge = assay: Test Example 3: herbicidal effect by foliage application, Wagner pot (Table 18, symbol E); type: in vivo, rice flat sedge (Cyperus iria); settings: amount of applied herbicide 320 g/ha
# In short: as §4
# southern crabgrass [18] = assay: Test Example 4: herbicidal effect by soil treatment (Table 19, symbol F); type: in vivo, southern crabgrass (Digitaria ciliaris); settings: amount of applied herbicide 320 g/ha
# In short: (§5)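 Step 1: sow seeds in sterilized diluvial soil, cover ~1.5 cm. Step 2: spray diluted emulsion onto soil surface at predetermined rate. Step 3: greenhouse, 25–30° C, three weeks. Step 4: grade effect on each plant by earlier criteria.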
# green foxtail [19] = assay: Test Example 4: herbicidal effect by soil treatment (Table 19, symbol G); type: in vivo, green foxtail (Setaria viridis); settings: amount of applied herbicide 320 g/ha
# In short: as §5
# barnyard grass [20] = assay: Test Example 4: herbicidal effect by soil treatment (Table 19, symbol H); type: in vivo, barnyard grass (Echinochloa crus-galli); settings: amount of applied herbicide 320 g/ha
# In short: as §5
# wild oat [21] = assay: Test Example 4: herbicidal effect by soil treatment (Table 19, symbol I); type: in vivo, wild oat (Avena fatua); settings: amount of applied herbicide 320 g/ha
# In short: as §5
# blackgrass [22] = assay: Test Example 4: herbicidal effect by soil treatment (Table 19, symbol J); type: in vivo, blackgrass (Alopecurus myosuroides); settings: amount of applied herbicide 320 g/ha
# In short: as §5
# Italian ryegrass [23] = assay: Test Example 4: herbicidal effect by soil treatment (Table 19, symbol K); type: in vivo, Italian ryegrass (Lolium multiflorum); settings: amount of applied herbicide 320 g/ha
# In short: as §5
# windgrass [24] = assay: Test Example 4: herbicidal effect by soil treatment (Table 19, symbol L); type: in vivo, windgrass (Apera spica-venti); settings: amount of applied herbicide 320 g/ha
# In short: as §5
# velvetleaf [25] = assay: Test Example 4: herbicidal effect by soil treatment (Table 19, symbol M); type: in vivo, velvetleaf (Abutilon theophrasti); settings: amount of applied herbicide 320 g/ha
# In short: as §5
# redroot pigweed = assay: Test Example 4: herbicidal effect by soil treatment (Table 19, symbol N); type: in vivo, redroot pigweed (Amaranthus retroflexus); settings: amount of applied herbicide 320 g/ha
# In short: as §5
# lambsquarters [26] = assay: Test Example 4: herbicidal effect by soil treatment (Table 19, symbol O); type: in vivo, lambsquarters (Chenopodium album); settings: amount of applied herbicide 320 g/ha
# In short: as §5
# chickweed = assay: Test Example 4: herbicidal effect by soil treatment (Table 19, symbol P); type: in vivo, common chickweed (Stellaria media); settings: amount of applied herbicide 320 g/ha
# In short: as §5
# persian speedwell [27] = assay: Test Example 4: herbicidal effect by soil treatment (Table 19, symbol R); type: in vivo, Persian speedwell (Veronica persica); settings: amount of applied herbicide 320 g/ha
# In short: as §5
structure (smiles),measurement,setting,value
COCCOCOc1c(C)nn(C)c(=O)c1-c1c(-c2ccc(OCC(=O)OC)cc2)sc2ccccc12 [1-233],effect on southern crabgrass (F),southern crabgrass [1],0 (Herbicidal rate of 5% or less (almost no effect))
same,effect on green foxtail (G),green foxtail [2],0 (Herbicidal rate of 5% or less (almost no effect))
same,effect on barnyard grass (H),barnyard grass [3],0 (Herbicidal rate of 5% or less (almost no effect))
same,effect on wild oat (I),wild oat [4],0 (Herbicidal rate of 5% or less (almost no effect))
same,effect on blackgrass (J),blackgrass [5],0 (Herbicidal rate of 5% or less (almost no effect))
same,effect on Italian ryegrass (K),Italian ryegrass [6],0 (Herbicidal rate of 5% or less (almost no effect))
same,effect on windgrass (L),windgrass [7],0 (Herbicidal rate of 5% or less (almost no effect))
same,effect on velvetleaf (M),velvetleaf [8],0 (Herbicidal rate of 5% or less (almost no effect))
same,effect on lambsquarters (O),lambsquarters [9],2 (Herbicidal rate of 20% or more and less than 40%)
same,effect on false cleavers (Q),false cleavers,0 (Herbicidal rate of 5% or less (almost no effect))
same,effect on persian speedwell (R),persian speedwell [10],0 (Herbicidal rate of 5% or less (almost no effect))
CCCC(=O)Oc1c(C)nn(C)c(=O)c1-c1c(-c2ccc(F)c(Cl)c2)sc2ccc(F)cc12 [2-353],Herbicidal effect on A: late watergrass (grade 0-5),late watergrass [11],2 (Herbicidal rate of 20% or more and less than 40%)
same,Herbicidal effect on B: Japanese bulrush (grade 0-5),Japanese bulrush [12],0 (Herbicidal rate of 5% or less (almost no effect))
same,Herbicidal effect on C: oval-leafed pondweed (grade 0-5),oval-leafed pondweed [13],0 (Herbicidal rate of 5% or less (almost no effect))
same,"herbicidal effect rating, A: late watergrass",late watergrass [14],4 (Herbicidal rate of 70% or more and less than 90%)
same,"herbicidal effect rating, B: Japanese bulrush",Japanese bulrush [15],3 (Herbicidal rate of 40% or more and less than 70%)
same,"herbicidal effect rating, C: oval-leafed pondweed",oval-leafed pondweed [16],3 (Herbicidal rate of 40% or more and less than 70%)
same,herbicidal effect on H: barnyard grass,barnyard grass [17],5 (Herbicidal rate of 90% or more (almost completely withered))
same,herbicidal effect on D: Chinese sprangletop,Chinese sprangletop,5 (Herbicidal rate of 90% or more (almost completely withered))
same,herbicidal effect on E: rice flat sedge,rice flat sedge,5 (Herbicidal rate of 90% or more (almost completely withered))
same,"herbicidal effect, F: southern crabgrass",southern crabgrass [18],3 (Herbicidal rate of 40% or more and less than 70%)
same,"herbicidal effect, G: green foxtail",green foxtail [19],1 (Herbicidal rate of 5% or more and less than 20%)
same,"herbicidal effect, H: barnyard grass",barnyard grass [20],1 (Herbicidal rate of 5% or more and less than 20%)
same,"herbicidal effect, I: wild oat",wild oat [21],0 (Herbicidal rate of 5% or less (almost no effect))
same,"herbicidal effect, J: blackgrass",blackgrass [22],0 (Herbicidal rate of 5% or less (almost no effect))
same,"herbicidal effect, K: Italian ryegrass",Italian ryegrass [23],4 (Herbicidal rate of 70% or more and less than 90%)
same,"herbicidal effect, L: windgrass",windgrass [24],3 (Herbicidal rate of 40% or more and less than 70%)
same,"herbicidal effect, M: velvetleaf",velvetleaf [25],2 (Herbicidal rate of 20% or more and less than 40%)
same,"herbicidal effect, N: redroot pigweed",redroot pigweed,4 (Herbicidal rate of 70% or more and less than 90%)
same,"herbicidal effect, O: lambsquarters",lambsquarters [26],4 (Herbicidal rate of 70% or more and less than 90%)
same,"herbicidal effect, P: chickweed",chickweed,3 (Herbicidal rate of 40% or more and less than 70%)
same,"herbicidal effect, R: persian speedwell",persian speedwell [27],3 (Herbicidal rate of 40% or more and less than 70%)

# From patent US20230085307A1, “PYRIDAZINONE COMPOUND AND HERBICIDE” (NISSAN CHEMICAL CORPORATION, priority 2019, published 2023)
